Assays:
[1] = In vivo stability analysis, plasma precipitation assay; design: species or system C57BL/6J and Foxn1^nu/nu mice; settings: after 60 min
Description: Tracer in vivo stability studies were performed with 12 mice consisting of two groups; 6 1-year-old male C57BL/6J and 6 3-month-old female Foxn1^nu/nu mice.
Twelve non-tumor-bearing control mice (6 C57BL/6J and 6 Foxn1^nu/nu) were injected with 9–14 MBq of tracer before a 200-μL blood sample was drawn into a heparinized vial and kept on ice. After 15 min, a second sample was collected during animal sacrifice. Whole blood was weighed and measured for radioactivity before being centrifuged at 730×g and 5 °C for 5 min, separated into plasma and blood cell fractions, and then separately weighed and measured. The values were used along with age, gender, and animal model-specific hematocrit values (reported by suppliers) to calculate the plasma radioactivity fraction of the whole-blood radioactivity (Eq. 1):1 Plasma Activity Fraction=Cp/CRBC+Cp=ρpCpHCT/ρbCb−ρpCp1−HCT+ρpCpHCT where C = radioactivity concentration, ρ = density, and HCT = hematocrit. […]
Aliquots of plasma were precipitated with 2.5 × (volume) methanol, vortexed, and centrifuged at 11,000×g for 5 min. The pellet and supernatant fractions were separated and measured for radioactivity to give the radioactivity fraction of the plasma that was trapped or bound to proteins (Eq. 2):2 Unbound plasma fraction=Csup/Cpel+Csup where C = radioactivity of subscripts which denote the following: sup = supernatant and pel = pellet. […]

rat BT4C glioma cells [2] = test: Logan plot (reversible uptake model), subcutaneous model; type: in vivo, Foxn1^nu/nu mouse; settings: for AB distribution volume: arterial blood input; for PC distribution volume: plasma-corrected input; for Logan DV (AB) distribution volume / Logan Ic (AB) y intercept: AB input; for Logan DV (PC) distribution volume / Logan IC (PC) y intercept: PC input
Description: (§1) Image analysis was performed using CARIMAS software published and freely distributed by the Turku PET Center (http://turkupetcentre.fi/carimas/). CT scans were used as rough anatomical reference while tumor regions of interest (ROI) were hand-drawn based upon observed spikes of radioactivity in the PET images at locations correlating with recorded tumor grafts. Control muscle ROIs were drawn on the side opposite to the tumor in the leg flank muscle (based on CT) while the blood ROI was drawn based upon heart anatomical location and observed PET image radioactivity spike during the initial 20 s of imaging in the left ventricle. Standardized uptake values (SUV) were calculated with respect to ROI volume, mean and max tumor radioactivity, total injected radioactivity dose (corrected for tail, cannula, and syringe residual radioactivity), and animal weight, and were additionally presented as tumor-to-background ratio (TBR, tumor-to-healthy brain region for intracranial gliomas and tumor-to-muscle for subcutaneous gliomas) as defined by recent glioma research literature standards. Mean and maximum TBR values were reported as ROI radioactivity per volume divided by mean background radioactivity per volume. The blood radioactivity SUV and gender-specific metabolite-corrected blood radioactivity SUV were then applied to multiple pharmacokinetic models to characterize the flux of the tracer (further described in the “Modeling” section).
(§2) Using the heart’s left ventricle ROI from the PET data as an uncorrected radioactivity level input and the bioavailable parent-tracer fraction (results: Eqs. 3 and 4 applied to the uncorrected input) as the corrected input, multiple models were investigated to characterize the tissue uptake dynamics. Two-compartment modeling and Logan, Patlak, and Yokoi plots were used to separately model the pharmacokinetics for the gliomas (both subcutaneous and orthotopic loci) and their respective control tissues (healthy muscle and healthy brain, respectively). Where indicated, means plus/minus standard deviations are reported. Difference in parameters for uncorrected versus correct and target tissue versus their respective control regions were tested with students’ paired t tests with P values lower than 0.05 being considered significant.

[3] = test system: patient-derived BT3 glioma cells; test: Yokoi plot, orthotopic model; type: in vivo, BALB/cOlaHsd-Foxn1^nu mouse; settings: for Yokoi K1 (AB) plasma to tissue transport rate / Yokoi K1/k2 (AB) binding potential / Yokoi k2 (AB) tissue to plasma transport rate: AB input; for Yokoi K1 (PC) plasma to tissue transport rate / Yokoi K1/k2 (PC) binding potential / Yokoi k2 (PC) tissue to plasma transport rate: PC input
Description: as §1, §2

rat BT4C glioma cells [4] = test: Ex vivo biodistribution; type: in vivo, Foxn1^nu/nu mouse; settings: higher than subcutaneous tumor
Description: See Suppl. Materials in ESM for detailed descriptions of biodistribution, stability, cryosectioning, autoradiography, and histology.
Ex Vivo Biodistribution Results
The tracer accumulated highly in the pancreatic tissue with notable high uptake in the skull (bo ne) and femur (bone + marrow). The bone uptake is classically characteristic of defluorination occurring which leads to absorption into the osseous tissue. […]
adipose tissue likely due to the comparative increased number of metabolic processes which encompass its cell type characteristics.
Supplemental Fig. 11. Ex vivo biodistribution averages of [ 18F]FGln uptake 63 minutes post-injection in subcutaneously xenografted BT4C tumor bearing Foxn1 nu/nu mice (female, n = 5) and control C57BL/6JRj […]

[5] = Bone (femoral condyle) average (n = 6)

- Plasma radioactivity bound to or incorporated into proteins [1]: roughly 25%
- AB distribution volume (rat BT4C glioma cells [2]; Bone (femoral condyle) (n = 6)): 5.11 ± 2.19
- PC distribution volume (rat BT4C glioma cells [2]; Bone (femoral condyle) (n = 6)): 13.47 ± 7.70
- Logan DV (AB) distribution volume (rat BT4C glioma cells [2]; [5]): 5.11 ± 2.19
- Logan Ic (AB) y intercept (rat BT4C glioma cells [2]; [5]): -66.36 ± 26.46
- Logan DV (PC) distribution volume (rat BT4C glioma cells [2]; [5]): 13.47 ± 7.70
- Logan IC (PC) y intercept (rat BT4C glioma cells [2]; [5]): -142.79 ± 84.46
- AB distribution volume (rat BT4C glioma cells [2]; Flank muscle (n = 6)): 0.77 ± 0.13
- PC distribution volume (rat BT4C glioma cells [2]; Flank muscle (n = 6)): 1.38 ± 0.23
- Logan DV (AB) distribution volume (rat BT4C glioma cells [2]; Flank muscle average (n = 6)): 0.77 ± 0.13
- Logan Ic (AB) y intercept (rat BT4C glioma cells [2]; Flank muscle average (n = 6)): -15.28 ± 5.34
- Logan DV (PC) distribution volume (rat BT4C glioma cells [2]; Flank muscle average (n = 6)): 1.38 ± 0.23
- Logan IC (PC) y intercept (rat BT4C glioma cells [2]; Flank muscle average (n = 6)): -27.58 ± 7.76
- AB distribution volume (rat BT4C glioma cells [2]; Flank tumor (n = 6)): 1.13 ± 0.09
- PC distribution volume (rat BT4C glioma cells [2]; Flank tumor (n = 6)): 1.96 ± 0.15
- Logan DV (AB) distribution volume (rat BT4C glioma cells [2]; Flank tumor average (n = 6)): 1.13 ± 0.09
- Logan Ic (AB) y intercept (rat BT4C glioma cells [2]; Flank tumor average (n = 6)): -10.31 ± 3.60
- Logan DV (PC) distribution volume (rat BT4C glioma cells [2]; Flank tumor average (n = 6)): 1.96 ± 0.15
- Logan IC (PC) y intercept (rat BT4C glioma cells [2]; Flank tumor average (n = 6)): -19.79 ± 4.89
- AB distribution volume (rat BT4C glioma cells [2]; Neck tumor (n = 6)): 1.21 ± 0.08
- PC distribution volume (rat BT4C glioma cells [2]; Neck tumor (n = 6)): 2.08 ± 0.13
- Logan DV (AB) distribution volume (rat BT4C glioma cells [2]; Neck tumor average (n = 6)): 1.21 ± 0.08
- Logan Ic (AB) y intercept (rat BT4C glioma cells [2]; Neck tumor average (n = 6)): -7.63 ± 2.79
- Logan DV (PC) distribution volume (rat BT4C glioma cells [2]; Neck tumor average (n = 6)): 2.08 ± 0.13
- Logan IC (PC) y intercept (rat BT4C glioma cells [2]; Neck tumor average (n = 6)): -16.47 ± 3.85
- Yokoi K1 (AB) plasma to tissue transport rate ([3]; Subject A brain (control)): 0.018 mL min-1 mL-1
- Yokoi K1/k2 (AB) binding potential ([3]; Subject A brain (control)): 0.34 mL mL-1
- Yokoi k2 (AB) tissue to plasma transport rate ([3]; Subject A brain (control)): 0.054 min⁻¹
- Yokoi K1 (PC) plasma to tissue transport rate ([3]; Subject A brain (control)): 0.019 mL min-1 mL-1
- Yokoi K1/k2 (PC) binding potential ([3]; Subject A brain (control)): 0.68 mL mL-1
- Yokoi k2 (PC) tissue to plasma transport rate ([3]; Subject A brain (control)): 0.028 min⁻¹
- Yokoi K1 (AB) plasma to tissue transport rate ([3]; Subject A glioma max.): 0.120 mL min-1 mL-1
- Yokoi K1/k2 (AB) binding potential ([3]; Subject A glioma max.): 1.59 mL mL-1
- Yokoi k2 (AB) tissue to plasma transport rate ([3]; Subject A glioma max.): 0.075 min⁻¹
- Yokoi K1 (PC) plasma to tissue transport rate ([3]; Subject A glioma max.): 0.121 mL min-1 mL-1
- Yokoi K1/k2 (PC) binding potential ([3]; Subject A glioma max.): 2.95 mL mL-1
- Yokoi k2 (PC) tissue to plasma transport rate ([3]; Subject A glioma max.): 0.041 min⁻¹
- Yokoi K1 (AB) plasma to tissue transport rate ([3]; Subject A o.t. glioma): 0.078 mL min-1 mL-1
- Yokoi K1/k2 (AB) binding potential ([3]; Subject A o.t. glioma): 1.50 mL mL-1
- Yokoi k2 (AB) tissue to plasma transport rate ([3]; Subject A o.t. glioma): 0.052 min⁻¹
- Yokoi K1 (PC) plasma to tissue transport rate ([3]; Subject A o.t. glioma): 0.083 mL min-1 mL-1
- Yokoi K1/k2 (PC) binding potential ([3]; Subject A o.t. glioma): 2.96 mL mL-1
- Yokoi k2 (PC) tissue to plasma transport rate ([3]; Subject A o.t. glioma): 0.028 min⁻¹
- Yokoi K1 (AB) plasma to tissue transport rate ([3]; Subject B brain (control)): 0.015 mL min-1 mL-1
- Yokoi K1/k2 (AB) binding potential ([3]; Subject B brain (control)): 0.33 mL mL-1
- Yokoi k2 (AB) tissue to plasma transport rate ([3]; Subject B brain (control)): 0.045 min⁻¹
- Yokoi K1 (PC) plasma to tissue transport rate ([3]; Subject B brain (control)): 0.015 mL min-1 mL-1
- Yokoi K1/k2 (PC) binding potential ([3]; Subject B brain (control)): 0.69 mL mL-1
- Yokoi k2 (PC) tissue to plasma transport rate ([3]; Subject B brain (control)): 0.022 min⁻¹
- Yokoi K1 (AB) plasma to tissue transport rate ([3]; Subject B glioma max.): 0.046 mL min-1 mL-1
- Yokoi K1/k2 (AB) binding potential ([3]; Subject B glioma max.): 1.29 mL mL-1
- Yokoi k2 (AB) tissue to plasma transport rate ([3]; Subject B glioma max.): 0.036 min⁻¹
- Yokoi K1 (PC) plasma to tissue transport rate ([3]; Subject B glioma max.): 0.049 mL min-1 mL-1
- Yokoi K1/k2 (PC) binding potential ([3]; Subject B glioma max.): 2.79 mL mL-1
- Yokoi k2 (PC) tissue to plasma transport rate ([3]; Subject B glioma max.): 0.017 min⁻¹
- Yokoi K1 (AB) plasma to tissue transport rate ([3]; Subject B o.t. glioma): 0.045 mL min-1 mL-1
- Yokoi K1/k2 (AB) binding potential ([3]; Subject B o.t. glioma): 0.99 mL mL-1
- Yokoi k2 (AB) tissue to plasma transport rate ([3]; Subject B o.t. glioma): 0.046 min⁻¹
- Yokoi K1 (PC) plasma to tissue transport rate ([3]; Subject B o.t. glioma): 0.047 mL min-1 mL-1
- Yokoi K1/k2 (PC) binding potential ([3]; Subject B o.t. glioma): 1.96 mL mL-1
- Yokoi k2 (PC) tissue to plasma transport rate ([3]; Subject B o.t. glioma): 0.024 min⁻¹
- Pancreas uptake relative to tumor (rat BT4C glioma cells [4]): 6 fold
Compound: NC(=O)[C@H]([18F])C[C@H](N)C(=O)O [[^18F]FGln, (2S, 4R)-4-[^18F]fluoroglutamine]
